# Measured values as given in patent US12616196B2, “Long protection mosquito repellent ointment” (MAIA AFRICA SAS, priority 2019, dated 2026).
# Legend:
# Anopheles gambiae s.l. = assay: Field human landing catches on treated lower legs, Goden village (WHO Guidelines 2009); assay type: in vivo; settings: for Median CPT (complete protection time): Kaplan-Meier
# Description: (§1) The protection time provided by ointment No. 9 of Example 1 has been measured according to the “Guidelines for efficacy testing of mosquito repellents for human skin” published by the World Health Organization in 2009 (noted hereafter “WHO Guidelines, 2009”). These guidelines describe how human landing catches must be performed on volunteers. The effectiveness of ointment No. 9 was evaluated and compared to a 20% ethanol solution of DEET (N, N-Diethyl-3-methylbenzamide), being the positive control, and an ethanol solution being the negative control.
# (§2) Briefly, the study was carried out in real conditions at the Goden village (12°25′N, 1°20′W), a rural village in the locality of Gampela, 25 km north-east of Ouagadougou, the capital city of Burkina Faso. Goden is in the Sudanian Savanna with approximately 800 inhabitants mainly belonging to the Mossi ethnic group, mostly devoted to agriculture and rearing few animals such as dogs, pigs and others. Goden is known for its high density of malaria vectors due to its proximity to the Massiri river. This study was carried out during the high malaria transmission period, when the mosquito density was the highest A preliminary assessment of the collection site was carried out by undertaking captures on human volunteers before the tests themselves.
# A total of twenty volunteers have been recruited from the Goden village and have been trained for the nocturnal collection of mosquitoes on human bait using mouth aspirator and flash torch known as Human Landing Catches (HCL). The age of the volunteers ranged from 18 to 50 years old. After receiving explanation of the aims, benefits and risks of the study, they signed a written informed consent. The composition of the ointment was not disclosed to the volunteers. Volunteers were instructed not to use any fragranced soap or perfume, tobacco or alcohol 12 hours before the start and throughout the experiments. Before applying treatments, the lower leg of volunteers was washed with neutral soap, rinsed with 70% of ethanol solution and naturally dried. Once their legs treated volunteers were also asked to avoid rubbing, touching or wetting the repellent-treated area.
# Three treatments have been carried out in the study: • (i) one negative control (ethanol 100%), • (ii) two treatments of 20% DEET diluted in ethanol 100% of technical quality used as a positive control, since this repellent is considered as the reference, • (iii) two treatments of ointment No. 9.
# The products were applied to the bare leg of the volunteers and the areas of application were exposed to mosquito bites in the field. Volunteers applied to their exposed leg: Ointment No. 9 at a dosage of 2 mg/cm^2, and 20% DEET in ethanol for the positive control at a dosage of 1 ml per 600 cm^2.
# To establish the amount of repellent required for application in the experiments, the surface area of the leg of each volunteer were determined by first measuring the circumferences expressed in centimeter (cm) just below the knee, and above the ankle, multiplied by the length of the lower leg, measured from the knee to the ankle. The surface area (in cm^2) of skin was calculated according to formula (1) below: Area=½(Ck+Ca)Dka, (1) wherein Ck is the circumference below the knee in cm, Ca is the circumference above the ankle in centimeter, and Dka is the distance in centimeter between Ca and Ck. The amount needed for each volunteer was then determined depending on their leg length. In addition, the quantity of product left in bottles was weighed using a precision weighing balance (KERN & SOHN GmbH) to determine the amount applied by each volunteer. Overall, the average amount applied was 2.4±0.2 g per 1189±79.2 cm^2 and per volunteer's lower leg, leading to 2 mg/cm^2 of Ointment No. 9 and […] of a 20% DEET solution.
# Volunteers were divided into five groups of four volunteers. All the members of a group received the same treatment at the same time. […]
# Anopheles funestus = assay: Field human landing catches, Goden village; assay type: in vivo; settings: total catch during the tests, collection 6 pm to 6 am
# Description: as §1
# as §2, with “themselves. […]” for “themselves.”
# Other Anopheles = assay: Field human landing catches, Goden village; assay type: in vivo; settings: total catch during the tests, collection 6 pm to 6 am
# Description: as §1
# as §2, with “themselves. […]” for “themselves.”
# Culicine = assay: Field human landing catches, Goden village; assay type: in vivo, Culicine (Aedes); settings: total catch during the tests, collection 6 pm to 6 am
# Description: as §1
# as §2, with “themselves. […]” for “themselves.”
# mosquitoes = assay: Field human landing catches, hourly mosquito biting rate; assay type: in vivo; settings: with 95% CI
# Description: as §1
# as §2, with “themselves. […]” for “themselves.”
# An. arabiensis (Kingani) = assay: Semi-field system (SFS) recapture of released mosquitoes on treated lower limbs; assay type: in vivo
# Description: (§3) The study was conducted under ambient condition in the semi-field system (SFS) located in Bagamoyo district at the Ifakara Health Institute at Bagamoyo branch in Tanzania. Bagamoyo is located on the coast region of the Indian Ocean between latitudes 6° and 8′ South and between longitudes 30° and 37′ East. The district experience annual rainfall ranging between 800 mm and 1000 mm, temperature ranging between 22° C. and 33° C., and mean relative humidity of 73%.
# (§4) Three laboratory-reared mosquito strains, aged 6 days old, sugar starved for 8 hours, nulliparous females, reactive to human odor on the day of the experiment, have been used for this experiment. Mosquito strains used were: (i) the pyrethroid insecticide resistant (20% mortality) An. arabiensis (Kingani, (ii) fully pyrethroid susceptible An. gambiae s.s. (Kisumu) and (iii) Ae. aegypti (Bagamoyo). The vector control product-testing unit of IHI supplied all mosquitoes used in the experiments.
# (§5) The mosquitoes were reared in the insectary following MR4 guideline (MR4. Methods in Anopheles Research 2016; 2015 Edition). Adults were kept inside cages measuring 30 cm×30 cm×30 cm. Only hyperactive mosquitoes were selected at least 8 hours before the experiment. […] About 30 minutes before the experiment, mosquitoes were transferred to the SFS to acclimatize the environmental conditions. The SFS offered the following advantages; 1) volunteers were exposed to laboratory-reared mosquitoes only, 2) experiments were run using a known number of mosquitoes throughout the experiments; 3) mosquitoes used were of known age (6 days), physiological status and avidity. These features improve data quality and less results variability between days and volunteers.
# (§6) Three treatments have been tested: (i) Ethanol 100% as a negative control, (ii) 20% DEET diluted in ethanol 100% as a positive control, and (iii) ointment No. 9.
# (§7) Volunteers wore shorts, closed shoes and bug jacket to ensure mosquitoes had access to the lower limbs only. Volunteers applied 20% DEET and ointment No. 9 at an average rate of 2 mg/cm^2 of the repellent to the lower limbs using latex glove to minimize absorption onto volunteer's hand. After application, an empty plastic cups were weighed to determine the quantity of repellent left in the cup. The composition of the ointment was not disclosed to the volunteers.
# (§8) The study was divided into two experiments: one for Anopheles mosquitoes conducted in the late evening and the other for Ae. aegypti mosquitoes conducted early in the morning. The experiment for Anopheles started at 17:55 and that for Ae. aegypti at 06:00 hours.
# (§9) The experiments were conducted for a total of 18 days. During the first 9 days 100 mosquitoes (50 per species) were released in each compartment starting at 18:00 hours for Anopheles species and at 06:00 hours for Ae. aegypti. After the release, the number of mosquitoes recaptured by volunteers who applied 20% DEET and ointment No. 9 was insignificant up to 6 hours of recapture period. This warranted to extend the recapture period to 12 hours 9 last days.
# (§10) During the last 9 days, we used same volunteers, compartments and rotation schedule. Mosquitoes released were 100 per species and volunteers recaptured mosquitoes landing on their lower limbs using a mouth aspirator up to 12 hours of recapture period. Volunteers recorded a time the first mosquito of each species landed on the limb and the recaptured mosquito was placed in a paper cup labelled with volunteers unique identification code, time of collection, position and treatment code. The volunteer kept collecting subsequent mosquitoes up to 12 hours with cups changed after every hour.
# (§11) At the end of recapture time, mosquitoes were killed by putting in the refrigerator for about 30 minutes and then sorted to species level. If the mosquito recaptured in the control was below 50 percent, the experiment was considered invalid, data discarded and the experiment repeated. […]
# [1] = system: An. gambiae s.s. (Kisumu); assay: as above; assay type: in vivo
# Description: as §3, §4, §5, §6, §7, §8, §9, §10, §11
# Ae. aegypti (Bagamoyo) = assay: as above; assay type: in vivo, Aedes aegypti
# Description: as §3, §4
# The mosquitoes were reared in the insectary following MR4 guideline (MR4. Methods in Anopheles Research 2016; 2015 Edition). Adults were kept inside cages measuring 30 cm×30 cm×30 cm. Only hyperactive mosquitoes were selected at least 8 hours before the experiment. […] About 30 minutes before the experiment, mosquitoes were transferred to the SFS to acclimatize the environmental conditions. […]
# (§12) Volunteers wore shorts, closed shoes and bug jacket to ensure mosquitoes had access to the lower limbs only. […] After application, an empty plastic cups were weighed to determine the quantity of repellent left in the cup. […]
# (§13) During the last 9 days, we used same volunteers, compartments and rotation schedule. […] Volunteers recorded a time the first mosquito of each species landed on the limb and the recaptured mosquito was placed in a paper cup labelled with volunteers unique identification code, time of collection, position and treatment code. […]
# [2] = system: An. arabiensis (Kingani), An. gambiae s.s. (Kisumu), Ae. aegypti (Bagamoyo); assay: Semi-field system (SFS), all species tested; assay type: in vivo, Anopheles and Aedes mosquitoes
# Description: as §3
# Three laboratory-reared mosquito strains, aged 6 days old, sugar starved for 8 hours, nulliparous females, reactive to human odor on the day of the experiment, have been used for this experiment. […]
# as §12, §13
smiles,measurement,setting,value
"CCN(CC)C(=O)c1cccc(C)c1 [20% DEET, N,N-diethyl-3-méthylbenzamide]",percentage of repellency,Anopheles gambiae s.l.; after 3 h (10 hours after application),under 80%
same,Median CPT (complete protection time),Anopheles gambiae s.l.; indoor and outdoor together,480 min
same,Median CPT (complete protection time),Anopheles gambiae s.l.; indoor,480 min
same,Median CPT (complete protection time),Anopheles gambiae s.l.; outdoor,480 min
same,mosquitoes caught by treatment,"Anopheles gambiae s.l.; total catch during the tests, collection 6 pm to 6 am",686
same,increase of protection time compared to Ethanol,Anopheles gambiae s.l.; versus negative control Ethanol,four-fold
same,mosquitoes caught by treatment,Anopheles funestus,1
same,mosquitoes caught by treatment,Other Anopheles,1
same,mosquitoes caught by treatment,Culicine,7
same,average mosquito bites received per person per hour,mosquitoes,1.01 (95%: 0.76-1.33) per person per hour
same,Percentage protection (protective efficacy),An. arabiensis (Kingani); 12-hour recapture time,97.2%
same,Percentage recapture,An. arabiensis (Kingani); 12-hour recapture time,2.7%
same,"Average CRT (average complete protection time, CPT)",An. arabiensis (Kingani); up to 12 hours recapture,580.9 min
same,Percentage protection (protective efficacy),[1]; 12-hour recapture time,96.8%
same,Percentage recapture,[1]; 12-hour recapture time,2.5%
same,"Average CRT (average complete protection time, CPT)",[1]; up to 12 hours recapture,575 min
same,Percentage protection (protective efficacy),Ae. aegypti (Bagamoyo); 12-hour recapture time,93.1%
same,Percentage recapture,Ae. aegypti (Bagamoyo); 12-hour recapture time,4.8%
same,"Average CRT (average complete protection time, CPT)",Ae. aegypti (Bagamoyo); up to 12 hours recapture,436.9 min
same,protective efficacy,"[2]; 6-hour recapture time, all species tested",100%
same,number of mosquitoes recaptured,[2]; up to 6 hours of recapture period,insignificant
